Data reported in patent publication US20250019371A1, “SMALL-MOLECULAR INHIBITORS FOR THE BETA-CATENIN/ B-CELL LYMPHOMA 9 PROTEIN-PROTEIN INTERACTION” (H. LEE MOFFITT CANCER CENTER AND RESEARCH INSTITUTE, INC., priority 2021, published 2025).
Where two headings read alike, the source gives them in different places.

How the values were obtained:
[1] = biological target: T1, β-catenin/BCL9 PPI (Homo sapiens, UniProt P35222); assay: AlphaScreen competitive inhibition assay of β-catenin/BCL9 PPI; format: binding; details: for Ki: read-out: Ki; for potency relative to compound 12: AlphaScreen Ki compared with 12; for AlphaScreen inhibitory activity in words: SAR comparison
T1 construct: Full-length β-catenin (residues 1-781); host or cells: E. coli BL21 DE3
T1 sequence (P35222 1-781): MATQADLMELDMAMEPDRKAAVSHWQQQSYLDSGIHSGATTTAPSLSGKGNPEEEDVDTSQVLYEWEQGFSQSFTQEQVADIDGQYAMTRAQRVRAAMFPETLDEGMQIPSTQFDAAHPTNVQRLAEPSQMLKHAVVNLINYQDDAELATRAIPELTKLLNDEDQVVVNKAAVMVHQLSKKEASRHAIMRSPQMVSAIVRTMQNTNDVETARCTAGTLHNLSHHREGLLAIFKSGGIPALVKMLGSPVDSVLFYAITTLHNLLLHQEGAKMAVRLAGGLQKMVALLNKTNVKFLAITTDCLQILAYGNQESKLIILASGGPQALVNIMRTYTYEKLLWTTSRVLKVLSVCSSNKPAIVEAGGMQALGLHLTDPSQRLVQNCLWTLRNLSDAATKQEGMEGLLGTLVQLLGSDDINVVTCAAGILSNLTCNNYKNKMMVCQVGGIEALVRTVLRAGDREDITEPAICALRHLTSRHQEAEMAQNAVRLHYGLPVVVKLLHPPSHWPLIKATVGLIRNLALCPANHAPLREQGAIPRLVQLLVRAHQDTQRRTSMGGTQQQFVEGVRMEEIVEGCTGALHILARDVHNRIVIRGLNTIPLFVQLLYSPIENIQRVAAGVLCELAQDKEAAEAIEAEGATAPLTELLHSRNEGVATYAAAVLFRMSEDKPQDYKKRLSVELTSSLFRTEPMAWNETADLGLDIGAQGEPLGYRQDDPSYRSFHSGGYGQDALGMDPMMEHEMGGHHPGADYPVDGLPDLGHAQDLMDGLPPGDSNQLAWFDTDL
Protocol: AlphaScreen Assays of β-Catenin and BCL9 Interaction. Experiments were performed in white opaque 384-well plates from PerkinElmer (Waltham, MA), and the samples were read on a Biotek Synergy 2 plate reader (Winooski, VT) with excitation at 680 nm and emission at 570 nm. The standard AlphaScreen protocol was used with a sensitivity setting of 200. All dilutions were made in 1x assay buffer containing 25 mM Hepes (pH 7.4), 100 mM NaCl, 0.01% Triton X-100 and 0.1% BSA to minimize nonspecific interactions.
For the β-catenin/BCL9 assay, 5 nM biotinylated BCL9, and 50 nM His6-tagged 8-catenin were incubated in assay buffer for 30 min. Different concentrations of the tested inhibitor were added and incubated in 20 μL assay buffer for another 1 h. All of the assay plates were covered and gently mixed on an orbital shaker. Donor and acceptor beads were then added to the plates to a final concentration of 10 μg/mL in 25 μL assay buffer. The mixture was incubated for 1 h before detection. The IC50 value was determined by nonlinear least-square analysis of GraphPad Prism 8.0. […] All of the experiments were performed in triplicate and carried out in the presence of 1% DMSO for small-molecule inhibitors. Each compound was assayed at least by three independent experiments. The results were expressed as mean±standard deviation.

[2] = cell-based experiments, earlier work, cited from earlier work
[3] = first Table 3, AlphaScreen, inhibitors 31-35
[4] = Table 1, AlphaScreen, inhibitors 16-26
[5] = Table 1, AlphaScreen, inhibitors 16-26, Ki derived from IC50
[6] = Table 2, AlphaScreen, inhibitors 27-30 (R- and S-isomers), preliminary

Molecule `CC(C)(Oc1cccc(N2CCC[C@H](C(=O)N(Cc3ccc(-c4cccs4)cc3)C3CC3)C2)c1)C(=O)NS(=O)(=O)c1cccc(C#N)c1` [Compound 35] has an IC50 [1, 3] of at most 10 µM and a Ki [1, 3] of at most 10 µM.
`CC(C)(Oc1cccc(N2CCCC(C(=O)N(Cc3ccc(-c4cccs4)cc3)C3CC3)C2)c1)C(=O)NS(=O)(=O)c1cccc(O)c1` (stereo not drawn) [Compound 24, N-Cyclopropyl-1-(3-((1-((3-hydroxyphenyl)sulfonamido)-2-methyl-1-oxopropan-2-yl)oxy)phenyl)-N-(4-(thiophen-2-yl)benzyl) piperidine-3-carboxamide] gave an IC50 [1, 4] of at most 10 µM and a Ki [1, 5] of at most 10 µM.
Work on `COc1cccc(S(=O)(=O)NC(=O)C(C)(C)Oc2cccc(N3CCC[C@@H](C(=O)N(Cc4ccc(-c5cccs5)cc4)C4CC4)C3)c2)c1` [Compound 27, (R)—N-Cyclopropyl-1-(3-((1-((3-methoxyphenyl)sulfonamido)-2-methyl-1-oxopropan-2-yl)oxy)phenyl)-N-(4-(thiophen-2-yl)benzyl) piperidine-3-carboxamide] yielded an IC50 [1, 6] of at most 10 µM and a Ki [1, 6] of at most 5 µM.
`CC(C)(Oc1cccc(N2CCC[C@@H](C(=O)N(Cc3ccc(-c4cccs4)cc3)C3CC3)C2)c1)C(=O)NS(=O)(=O)c1ccc(C#N)cc1` [Compound 29, (R)-1-(3-((1-((4-Cyanophenyl)sulfonamido)-2-methyl-1-oxopropan-2-yl)oxy)phenyl)-N-cyclopropyl-N-(4-(thiophen-2-yl)benzyl) piperidine-3-carboxamide] showed an IC50 [1, 6] of at most 5 µM and a Ki [1, 6] of at most 5 µM.
For `CC(C)(Oc1cccc(N2CCCC(C(=O)N(Cc3ccc(-c4cccs4)cc3)C3CC3)C2)c1)C(=O)NS(=O)(=O)c1ccccc1` (stereo not drawn) [Compound 21, N-Cyclopropyl-1-(3-((2-methyl-1-oxo-1-(phenylsulfonamido)propan-2-yl)oxy)phenyl)-N-(4-(thiophen-2-yl)benzyl) piperidine-3-carboxamide], the “potency relative to compound 12” value [1] was “two-fold more potent than 12”, the “AlphaScreen inhibitory activity in words” value [1] was “improved activities” and the IC50 [1, 4] was at most 10 µM. For the same molecule, the Ki [1, 5] was at most 10 µM.
In the case of `COc1cccc(S(=O)(=O)NC(=O)C(C)(C)Oc2cccc(N3CCCC(C(=O)N(Cc4ccc(-c5cccs5)cc4)C4CC4)C3)c2)c1` (stereo not drawn) [Compound 22, N-Cyclopropyl-1-(3-((1-((3-methoxyphenyl)sulfonamido)-2-methyl-1-oxopropan-2-yl)oxy)phenyl)-N-(4-(thiophen-2-yl)benzyl) piperidine-3-carboxamide], the IC50 [1, 4] is reported as at most 10 µM and the Ki [1, 5] is reported as at most 5 µM.
In the case of `CC(C)(Oc1cccc(N2CCC[C@@H](C(=O)N(Cc3ccc(-c4cccs4)cc3)C3CC3)C2)c1)C(=O)NS(=O)(=O)C1CC1` [Compound 32], the IC50 [1, 3] is reported as at most 30 µM and the Ki [1, 3] is reported as at most 30 µM.
In the case of `CC(C)(Oc1cccc(N2CCCC(C(=O)N(Cc3ccc(-c4cccs4)cc3)C3CC3)C2)c1)C(=O)NS(C)(=O)=O` (stereo not drawn) [Compound 18, N-Cyclopropyl-1-(3-((2-methyl-1-(methylsulfonamido)-1-oxopropan-2-yl)oxy)phenyl)-N-(4-(thiophen-2-yl)benzyl) piperidine-3-carboxamide], the “potency relative to compound 12” value [1] is reported as “two-fold less potent than 12”, the IC50 [1, 4] is reported as at most 30 µM and the Ki [1, 5] is reported as at most 30 µM.
`CC(C)(Oc1cccc(N2CCCC(C(=O)N(Cc3ccc(-c4cccs4)cc3)C3CC3)C2)c1)C(=O)NS(=O)(=O)C(F)(F)F` (stereo not drawn) [Compound 31] showed an IC50 [1, 3] of about 200 µM and a Ki [1, 3] of about 168 µM.
For `COc1ccc(S(=O)(=O)NC(=O)C(C)(C)Oc2cccc(N3CCCC(C(=O)N(Cc4ccc(-c5cccs5)cc4)C4CC4)C3)c2)cc1` (stereo not drawn) [Compound 23, N-Cyclopropyl-1-(3-((1-((4-methoxyphenyl)sulfonamido)-2-methyl-1-oxopropan-2-yl)oxy)phenyl)-N-(4-(thiophen-2-yl)benzyl) piperidine-3-carboxamide], the IC50 [1, 4] was at most 10 µM and the Ki [1, 5] was at most 5 µM.
In the case of `CC(C)S(=O)(=O)NC(=O)C(C)(C)Oc1cccc(N2CCCC(C(=O)N(Cc3ccc(-c4cccs4)cc3)C3CC3)C2)c1` (stereo not drawn) [Compound 20, N-Cyclopropyl-1-(3-((2-methyl-1-((1-methylethyl)sulfonamido)-1-oxopropan-2-yl)oxy)phenyl)-N-(4-(thiophen-2-yl)benzyl) piperidine-3-carboxamide], the “AlphaScreen inhibitory activity in words” value [1] is reported as “improved activities”, the IC50 [1, 4] is reported as at most 30 µM and the Ki [1, 5] is reported as at most 30 µM.
In the case of `CC(C)(Oc1cccc(N2CCCC(C(=O)N(Cc3ccc(-c4cccs4)cc3)C3CC3)C2)c1)C(=O)NS(=O)(=O)c1ccc(C#N)cc1` (stereo not drawn) [Compound 26, 1-(3-((1-((4-Cyanophenyl)sulfonamido)-2-methyl-1-oxopropan-2-yl)oxy)phenyl)-N-cyclopropyl-N-(4-(thiophen-2-yl)benzyl) piperidine-3-carboxamide], the IC50 [1, 4] is reported as at most 5 µM and the Ki [1, 5] is reported as at most 5 µM.
In the case of `CC(C)(Oc1cccc(N2CCCC(C(=O)N(Cc3ccc(-c4cccs4)cc3)C3CC3)C2)c1)C(=O)NS(=O)(=O)c1cccc(C#N)c1` (stereo not drawn) [Compound 25, 1-(3-((1-((3-Cyanophenyl)sulfonamido)-2-methyl-1-oxopropan-2-yl)oxy)phenyl)-N-cyclopropyl-N-(4-(thiophen-2-yl)benzyl) piperidine-3-carboxamide], the IC50 [1, 4] is reported as at most 10 µM and the Ki [1, 5] is reported as at most 10 µM.
In the case of `CC(C)c1ccc(COC(=O)N2CCC[C@@H](c3cccc(OC(C)(C)C(=O)O)c3)C2)cc1` [CP868388], the cellular activity [2] is given as “inactive in cell-based experiments” and the cellular activity ([2]; listed as 1) is given as “did not show any cellular activity”.
In the case of `CC(C)(Oc1cccc(N2CCCC(C(=O)N(Cc3ccc(-c4cccs4)cc3)C3CC3)C2)c1)C(=O)NS(=O)(=O)C1CC1` (stereo not drawn) [Compound 19, 1-(3-((1-(Cyclopropanesulfonamido)-2-methyl-1-oxopropan-2-yl)oxy)phenyl)-N-cyclopropyl-N-(4-(thiophen-2-yl)benzyl) piperidine-3-carboxamide], the “AlphaScreen inhibitory activity in words” value [1] is reported as “improved activities”, the IC50 [1, 4] is reported as at most 30 µM and the Ki [1, 5] is reported as at most 30 µM.
`CC(C)(Oc1cccc(N2CCC[C@H](C(=O)N(Cc3ccc(-c4cccs4)cc3)C3CC3)C2)c1)C(=O)NS(=O)(=O)C1CC1` [Compound 33] showed an IC50 [1, 3] of at most 30 µM and a Ki [1, 3] of at most 30 µM.
In the case of `COc1ccc(S(=O)(=O)NC(=O)C(C)(C)Oc2cccc(N3CCC[C@H](C(=O)N(Cc4ccc(-c5cccs5)cc4)C4CC4)C3)c2)cc1` [Compound 34], the IC50 [1, 3] is reported as at most 30 µM and the Ki [1, 3] is reported as at most 30 µM.
With `COC(=O)C(C)(C)Oc1cccc(N2CCCC(C(=O)N(Cc3ccc(-c4cccs4)cc3)C3CC3)C2)c1` (stereo not drawn) [Compound 16, Methyl 2-(3-(3-(cyclopropyl(4-(thiophen-2-yl)benzyl)carbamoyl)piperidin-1-yl)phenoxy)-2-methylpropanoate] the “AlphaScreen inhibitory activity in words” value [1] was “significant potency loss”, the IC50 [1, 4] was over 100 µM and the Ki [1, 5] was over 90 µM.
